Legend:
full-length Xenopus IRBP [1] = target: T1, full-length Xenopus IRBP (Xenopus laevis, UniProt Q7SZI7); test: Competitive fluorescence titration of all-trans retinol with 11-cis retinaldehyde; format: binding
T1 construct: We expressed the full-length IRBP as well as its individual modules as thioredoxin-fusion proteins using pTrxFus and pThioHis vectors; made in house; host or cells: E. coli Top10 (pThioHis)
Excerpt: In Figure 8B, full-length Xenopus IRBP was titrated with all-trans retinol in the presence of different fixed concentrations of 11-cis retinaldehyde. Binding of all-trans retinol to Xenopus IRBP was followed by monitoring the enhancement of its fluorescence. […] Equation 3 (see methods) was used to analyze the data generating the 3-dimensional representation of the fit shown graphically in Figure 8B.
To describe the displacement of all-trans retinol by 11-cis retinaldehyde, Equation 1 was modified to take into account the competition between the two ligands. The apparent dissociation constants for all-trans retinol measured under these conditions is related to the dissociation constant of 11-cis retinaldehyde through the following expression.
Kapp=Kdall−trans[1+Rt11−cis/Kd11−cis] MathType@MTEF@5@5@+=feaafiart1ev1aaatCvAUfKttLearuWrP9MDH5MBPbIqV92AaeXatLxBI9gBaebbnrfifHhDYfgasaacH8akY=wiFfYdH8Gipec8Eeeu0xXdbba9frFj0=OqFfea0dXdd9vqai=hGuQ8kuc9pgc9s8qqaq=dirpe0xb9q8qiLsFr0=vr0=vr0dc8meaabaqaciaacaGaaeqabaqabeGadaaakeaacqWGlbWsdaWgaaWcbaGaemyyaeMaemiCaaNaemiCaahabeaakiabg2da9iabdUealnaaDaaaleaacqWGKbazaeaacqWGHbqycqWGSbaBcqWGSbaBcqGHsislcqWG0baDcqWGYbGCcqWGHbqycqWGUbGBcqWGZbWCaaGcdaWadaqaaiabigdaXiabgUcaRmaalaaabaGaemOuai1aa0baaSqaaiabdsha0bqaaiabigdaXiabigdaXiabgkHiTiabdogaJjabdMgaPjabdohaZbaaaOqaaiabdUealnaaDaaaleaacqWGKbazaeaacqaIXaqmcqaIXaqmcqGHsislcqWGJbWycqWGPbqAcqWGZbWCaaaaaaGccaGLBbGaayzxaaaaaa@58DE@
The origin of the above expression is discussed in reviews dealing with competition assays. Substitution of equation 2 into equation 1 yields the following expression.
Fenh=C1+C2[Rtall−trans−(Rtall−trans+NPt+Kdall−trans+Kdall−transRt11−cis/Kd11−cis)^2−4NPtRtall−trans] […]

full-length Xenopus IRBP [2] = target: T1, full-length Xenopus IRBP; test: Fluorometric titration (ligand fluorescence enhancement, protein quenching, energy transfer); format: binding
Excerpt: The binding parameters of retinoid-binding proteins including IRBP may be determined by fluorescence spectroscopy. The method utilizes changes in quantum yield occurring during ligand binding. Such changes are represented by enhancement of ligand fluorescence, quenching of intrinsic protein fluorescence, and transfer of energy from protein to bound ligand. Fluorescence enhancement occurs if the quantum yield of the ligand's fluorescence is higher in the hydrophobic environment of the ligand-binding domain compared to that outside of the domain.
[…] We previously derived an equation that is generally useful for describing such quantum yield changes that are consequent upon ligand binding. This equation has been previously applied to the analysis of binding by monitoring the enhancement of retinol fluorescence. In this case, […], the fluorescence enhancement (Fenh) depends on the total retinol concentration (Rt), the dissociation constant (Kd ^all-trans), the number of retinol-binding sites per protein molecule (N) and the total protein concentration (Pt).
Assuming that there is a single type of noninteracting site on the protein, (Fenh) is expected to be linearly related to the concentration of bound retinol molecules. Fenh is given by the relation
Fenh=C1+C2[Rtall−trans−(Rtall−trans+NPt+Kdall−trans)^2−4NPtRtall−trans] MathType@MTEF@5@5@+=feaafiart1ev1aaatCvAUfKttLearuWrP9MDH5MBPbIqV92AaeXatLxBI9gBaebbnrfifHhDYfgasaacH8akY=wiFfYdH8Gipec8Eeeu0xXdbba9frFj0=OqFfea0dXdd9vqai=hGuQ8kuc9pgc9s8qqaq=dirpe0xb9q8qiLsFr0=vr0=vr0dc8meaabaqaciaacaGaaeqabaqabeGadaaakeaacqWGgbGrdaWgaaWcbaGaemyzauMaemOBa4MaemiAaGgabeaakiabg2da9iabdoeadnaaBaaaleaacqaIXaqmaeqaaOGaey4kaSIaem4qam0aaSbaaSqaaiabikdaYaqabaGcdaWadaqaaiabdkfasnaaDaaaleaacqWG0baDaeaacqWGHbqycqWGSbaBcqWGSbaBcqGHsislcqWG0baDcqWGYbGCcqWGHbqycqWGUbGBcqWGZbWCaaGccqGHsisldaGcaaqaamaabmaabaGaemOuai1aa0baaSqaaiabdsha0bqaaiabdggaHjabdYgaSjabdYgaSjabgkHiTiabdsha0jabdkhaYjabdggaHjabd6gaUjabdohaZbaakiabgUcaRiabd6eaojabdcfaqnaaBaaaleaacqWG0baDaeqaaOGaey4kaSIaem4saS0aa0baaSqaaiabdsgaKbqaaiabdggaHjabdYgaSjabdYgaSjabgkHiTiabdsha0jabdkhaYjabdggaHjabd6gaUjabdohaZbaaaOGaayjkaiaawMcaamaaCaaaleqabaGaeGOmaidaaOGaeyOeI0IaeGinaqJaemOta4Kaemiuaa1aaSbaaSqaaiabdsha0bqabaGccqWGsbGudaqhaaWcbaGaemiDaqhabaGaemyyaeMaemiBaWMaemiBaWMaeyOeI0IaemiDaqNaemOCaiNaemyyaeMaemOBa4Maem4CamhaaaqabaaakiaawUfacaGLDbaaaaa@8490@
The equation was fit to the data by nonlinear least-squares analysis. […] For the quenching studies the inner filter effect was accounted for by graphical correction as previously described. Fluorescence measurements were made using an SLM 8000TM C photon counting spectrofluorometer corrected for wavelength dependence of source energy and detector response.

T1 sequence (Q7SZI7 23-1219): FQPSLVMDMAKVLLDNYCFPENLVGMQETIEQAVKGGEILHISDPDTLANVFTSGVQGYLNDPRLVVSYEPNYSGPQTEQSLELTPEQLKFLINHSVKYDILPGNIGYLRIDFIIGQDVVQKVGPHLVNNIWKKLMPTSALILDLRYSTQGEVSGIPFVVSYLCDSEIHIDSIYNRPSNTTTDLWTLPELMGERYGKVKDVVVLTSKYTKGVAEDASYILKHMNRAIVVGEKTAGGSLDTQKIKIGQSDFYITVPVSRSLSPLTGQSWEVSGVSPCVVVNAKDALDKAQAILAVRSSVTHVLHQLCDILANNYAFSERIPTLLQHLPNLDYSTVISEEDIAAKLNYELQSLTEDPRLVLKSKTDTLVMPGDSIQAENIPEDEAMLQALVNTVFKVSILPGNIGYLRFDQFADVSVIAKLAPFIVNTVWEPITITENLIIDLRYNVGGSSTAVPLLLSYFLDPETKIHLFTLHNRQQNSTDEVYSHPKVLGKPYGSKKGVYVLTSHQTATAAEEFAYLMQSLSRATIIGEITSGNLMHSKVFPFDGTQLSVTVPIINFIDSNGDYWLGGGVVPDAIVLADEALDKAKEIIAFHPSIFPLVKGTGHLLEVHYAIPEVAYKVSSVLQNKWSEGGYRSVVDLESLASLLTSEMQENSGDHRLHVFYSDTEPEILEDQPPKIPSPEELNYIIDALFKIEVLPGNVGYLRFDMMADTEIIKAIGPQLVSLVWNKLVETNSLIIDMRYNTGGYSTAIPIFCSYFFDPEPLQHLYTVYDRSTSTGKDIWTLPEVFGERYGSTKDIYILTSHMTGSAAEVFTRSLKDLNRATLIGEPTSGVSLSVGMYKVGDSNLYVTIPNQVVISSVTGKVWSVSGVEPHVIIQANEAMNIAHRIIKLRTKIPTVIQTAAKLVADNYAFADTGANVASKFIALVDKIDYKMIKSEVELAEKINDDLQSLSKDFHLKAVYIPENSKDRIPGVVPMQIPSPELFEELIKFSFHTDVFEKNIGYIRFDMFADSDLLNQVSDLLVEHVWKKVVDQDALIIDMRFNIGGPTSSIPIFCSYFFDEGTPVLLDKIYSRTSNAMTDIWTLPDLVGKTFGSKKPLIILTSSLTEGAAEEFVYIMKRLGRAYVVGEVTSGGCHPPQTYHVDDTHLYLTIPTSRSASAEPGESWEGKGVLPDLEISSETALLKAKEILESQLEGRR

Question: For `CC1=C(/C=C/C(C)=C/C=C/C(C)=C/C=O)C(C)(C)CCC1` [11-cis retinal], which Kd (full-length Xenopus IRBP [1]; competition with all-trans retinol, read-out: Kd 11-cis retinal) is on record?
Answer: The Kd was 210 ± 100 nM.

Question: And the “Binding sites (N)” value (full-length Xenopus IRBP [1]; competition, sites assumed shared by all-trans retinol and 11-cis retinal)?
Answer: The value was 3.53 ± 0.19.

Question: And the “Binding sites (N), Quenching” value (full-length Xenopus IRBP [2]; quenching of protein fluorescence by 11-cis retinaldehyde, ex 280 nm, em 340 nm)?
Answer: Its value is 1.81 ± 0.15.

Question: And the Kd (full-length Xenopus IRBP [2]; quenching of protein fluorescence by 11-cis retinaldehyde, ex 280 nm, em 340 nm, read-out: Kd 11-cis, Quenching)?
Answer: The Kd was 280 ± 50 nM.

Question: For `CC1=C(/C=C/C(C)=C/C=C/C(C)=C/CO)C(C)(C)CCC1` [all-trans retinol], which Kd (full-length Xenopus IRBP [1]; competition, in presence of fixed concentrations of 11-cis retinaldehyde, read-out: Kd All-trans retinol) is on record?
Answer: Its Kd is 220 ± 130 nM.

Question: And the “Binding sites (N), Enhancement” value (full-length Xenopus IRBP [2]; all-trans retinol fluorescence enhancement, ex 330 nm, em 480 nm, IRBP 0.65 μM)?
Answer: The value was 3.19 ± 0.10.

Question: And the Kd (full-length Xenopus IRBP [2]; all-trans retinol fluorescence enhancement, ex 330 nm, em 480 nm, IRBP 0.65 μM, read-out: Kd, Enhancement)?
Answer: Its Kd is 300 ± 50 nM.

Question: And the “Binding sites (N), energy transfer” value (full-length Xenopus IRBP [2]; all-trans retinol, energy transfer, ex 280 nm, em 480 nm)?
Answer: The value was 3.72 ± 0.20.

Question: And the Kd (full-length Xenopus IRBP [2]; all-trans retinol, energy transfer, ex 280 nm, em 480 nm, read-out: Kd, energy transfer)?
Answer: The Kd was 290 ± 120 nM.

Question: And the “Binding sites (N), Quenching” value (full-length Xenopus IRBP [2]; quenching of protein fluorescence by all-trans retinol, ex 280 nm, em 340 nm)?
Answer: Its value is 1.93 ± 0.41.

Question: What about the Kd (full-length Xenopus IRBP [2]; quenching of protein fluorescence by all-trans retinol, ex 280 nm, em 340 nm, read-out: Kd, Quenching) of the same compound?
Answer: The Kd was 660 ± 140 nM.

Question: What about the Kd (full-length Xenopus IRBP [2]; summary statement of the abstract, read-out: Kd (summary)) of the same compound?
Answer: The Kd was 200 to 300 nM.
